Biological target: ATP-dependent translocase ABCB1 (Mus musculus, UniProt P21447)
Experiment: TP_TRANSPORTER: Western in vivo, brain of ddY mouse
Type: functional, organism-based

Sequence of ATP-dependent translocase ABCB1 (P21447 whole entry): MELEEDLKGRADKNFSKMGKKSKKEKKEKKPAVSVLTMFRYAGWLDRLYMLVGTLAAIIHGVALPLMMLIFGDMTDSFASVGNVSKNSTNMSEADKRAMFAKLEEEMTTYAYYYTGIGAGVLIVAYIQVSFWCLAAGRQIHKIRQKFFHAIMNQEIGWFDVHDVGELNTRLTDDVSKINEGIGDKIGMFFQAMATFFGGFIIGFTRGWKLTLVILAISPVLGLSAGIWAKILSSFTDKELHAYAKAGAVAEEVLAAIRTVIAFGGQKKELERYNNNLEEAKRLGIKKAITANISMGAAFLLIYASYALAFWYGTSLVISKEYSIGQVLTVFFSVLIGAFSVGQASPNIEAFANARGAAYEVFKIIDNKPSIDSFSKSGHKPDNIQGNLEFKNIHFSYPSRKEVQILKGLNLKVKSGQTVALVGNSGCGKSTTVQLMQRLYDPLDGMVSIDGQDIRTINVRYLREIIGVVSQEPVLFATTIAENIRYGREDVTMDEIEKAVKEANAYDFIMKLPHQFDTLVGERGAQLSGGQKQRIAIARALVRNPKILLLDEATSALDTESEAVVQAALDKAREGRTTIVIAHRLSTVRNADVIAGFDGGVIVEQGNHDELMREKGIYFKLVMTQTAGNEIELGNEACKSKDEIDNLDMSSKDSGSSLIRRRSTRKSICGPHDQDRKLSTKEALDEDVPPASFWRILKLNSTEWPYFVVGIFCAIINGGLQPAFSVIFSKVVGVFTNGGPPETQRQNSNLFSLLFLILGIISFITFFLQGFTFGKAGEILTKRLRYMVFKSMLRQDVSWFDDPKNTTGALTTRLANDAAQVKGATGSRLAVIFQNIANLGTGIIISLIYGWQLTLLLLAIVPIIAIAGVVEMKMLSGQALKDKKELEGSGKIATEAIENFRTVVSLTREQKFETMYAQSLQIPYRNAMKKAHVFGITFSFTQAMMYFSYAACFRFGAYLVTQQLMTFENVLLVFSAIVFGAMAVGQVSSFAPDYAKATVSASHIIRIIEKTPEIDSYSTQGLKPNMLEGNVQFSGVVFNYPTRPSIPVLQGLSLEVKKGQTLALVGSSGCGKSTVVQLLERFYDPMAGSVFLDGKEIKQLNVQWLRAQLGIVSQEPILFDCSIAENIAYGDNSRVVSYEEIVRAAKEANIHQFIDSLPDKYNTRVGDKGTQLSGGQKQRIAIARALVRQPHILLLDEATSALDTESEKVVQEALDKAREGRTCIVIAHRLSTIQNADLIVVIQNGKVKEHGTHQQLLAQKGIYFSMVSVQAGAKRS

Q: How did the Activity turn out when `CCCCCCCCCCCCCC(=O)OC(CCCCCCCCCCC)CC(=O)OC1C(NC(=O)CC(CCCCCCCCCCC)OC(=O)CCCCCCCCCCC)C(OC2CC(OC(=O)CC(O)CCCCCCCCCCC)C(NC(=O)CC(O)CCCCCCCCCCC)C(O)O2)OC(CO)C1OP(=O)(O)O` (stereo unspecified) was run?
A: inducer [Decrease]

— ChEMBL document CHEMBL2074301, “Effect of endotoxin on doxorubicin transport across blood-brain barrier and P-glycoprotein function in mice” (Eur J Pharmacol, 2002)
